# Measured values taken from patent publication US20120165304A1, “6,7,8,9-Tetrahydro-5H-1,4,7,10a-tetraaza-cyclohept[f]indene derivatives, pharmaceutical compositions containing these compounds, their use and processes for preparing them” (BOEHRINGER INGELHEIM INTERNATIONAL GMBH, priority 2008, published 2012).
# Molecular target: human 5-HT2C receptor (Homo sapiens, UniProt P28335, I156V/I160V/N158S)
# Assay: cell-based
# Chain of human 5-HT2C receptor (P28335 33-458 I156V/N158S/I160V limits assumed): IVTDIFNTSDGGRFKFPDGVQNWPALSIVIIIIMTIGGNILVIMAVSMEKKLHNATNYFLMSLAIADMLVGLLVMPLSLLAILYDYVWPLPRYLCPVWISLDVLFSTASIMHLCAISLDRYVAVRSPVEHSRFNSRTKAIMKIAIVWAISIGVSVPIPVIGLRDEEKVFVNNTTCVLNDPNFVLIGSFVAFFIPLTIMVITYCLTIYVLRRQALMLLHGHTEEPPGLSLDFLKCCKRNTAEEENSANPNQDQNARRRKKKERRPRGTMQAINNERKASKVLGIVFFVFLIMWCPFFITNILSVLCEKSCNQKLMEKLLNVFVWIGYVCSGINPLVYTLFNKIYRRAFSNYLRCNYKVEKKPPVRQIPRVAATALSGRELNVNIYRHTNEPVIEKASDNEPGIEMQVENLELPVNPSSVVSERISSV
row,Structure (SMILES),EC50
1,CN(C)CCCN(C)C(=O)C1CN(c2c3c(nc4ccnn24)CCN(C)CC3)C1 [Example 36.55],87 nM
2,O=C(C1CN(c2c3c(nc4c(Br)cnn24)CCNCC3)C1)N1CCC2(CCCCC2)C1 [Example 31.134],117 nM
3,CCCn1c(C2CN(c3c4c(nc5ccnn35)CCNCC4)C2)nc2ccccc21 [Example 34.35],472 nM
4,O=C(C1CN(c2c3c(nc4ccnn24)CCNCC3)C1)N1CCc2c(cccc2C(F)(F)F)C1 [Example 31.102],36 nM
5,NC1CCN(C(=O)C2CN(c3c4c(nc5ccnn35)CCNCC4)C2)CC1 [Example 37.42],2 nM
6,O=C(C1CN(c2c3c(nc4ccnn24)CCNCC3)C1)N1CCC(c2ccccc2)CC1 [Example 31.63],31 nM
7,CC1CN(C(=O)C2CN(c3c4c(nc5ccnn35)CCN(C)CC4)C2)CCO1 (stereo not shown) [Example 36.11],138 nM
8,CC(CC1CCCCC1)NC(=O)C1CN(c2c3c(nc4ccnn24)CCNCC3)C1 (stereo not shown) [Example 37.108],72 nM
9,CS(=O)(=O)N1CCN(C(=O)C2CN(c3c4c(nc5ccnn35)CCNCC4)C2)CC1 [Example 37.45],2 nM
10,CCN1CCCC1CNC(=O)C1CN(c2c3c(nc4ccnn24)CCN(C)CC3)C1 (stereo not shown) [Example 36.4],252 nM
11,CCC(C)CNC(=O)C1CN(c2c3c(nc4ccnn24)CCNCC3)C1 (stereo not shown) [Example 37.86],41 nM
12,"c1nn2c(N3CCC3)c3c(nc2c1C1CC1)CCNCC3 [Example 29, 10-Azetidin-1-yl-3-cyclopropyl-6,7,8,9-tetrahydro-5H-1,4,7,10a-tetraaza-cyclohepta[f]indene]",81 nM
13,CC(C)c1ccc(OC2CN(c3c4c(nc5ccnn35)CCNCC4)C2)cc1 [Example 35.44],256 nM
14,O=C(C1CN(c2c3c(nc4ccnn24)CCNCC3)C1)N1CCc2cccc(C(F)(F)F)c2C1 [Example 31.122],33 nM
15,Cc1ccc2c(c1)CCCN2C(=O)C1CN(c2c3c(nc4ccnn24)CCNCC3)C1 [Example 31.190],4 nM
16,CC1(C)CC1CNC(=O)C1CN(c2c3c(nc4ccnn24)CCNCC3)C1 (stereo not shown) [Example 37.110],255 nM
17,O=C(NC1CCCC(C(F)(F)F)C1)C1CN(c2c3c(nc4ccnn24)CCNCC3)C1 (stereo not shown) [Example 37.59],47 nM
18,O=C(C1CN(c2c3c(nc4ccnn24)CCNCC3)C1)N1CCCC2CCCCC21 (stereo not shown) [Example 31.127],1280 nM
19,"C1=C(c2c3c(nc4ccnn24)CCNCC3)CCNC1 [Example 24, 10-(1,2,3,6-Tetrahydro-pyridin-4-yl)-6,7,8,9-tetrahydro-5H-1,4,7,10a-tetraaza-cyclohepta[f]indene]",588 nM
20,"c1cc2nc3c(c(C4CCC4)n2n1)CCNCC3 [Example 23, 10-Cyclobutyl-6,7,8,9-tetrahydro-5H-1,4,7,10a-tetraaza-cyclohepta[f]indene]",114 nM
21,COc1cccc(OC2CN(c3c4c(nc5ccnn35)CCNCC4)C2)c1Cl [Example 35.33],90 nM
22,O=C(NCC1CCCCCC1)C1CN(c2c3c(nc4ccnn24)CCNCC3)C1 [Example 37.68],39 nM
23,CN1CCc2nc3ccnn3c(N3CC(C(=O)N4CCC(N(C)C)CC4)C3)c2CC1 [Example 36.5],51 nM
24,Clc1ccncc1OC1CN(c2c3c(nc4ccnn24)CCNCC3)C1 [Example 35.35],67 nM
25,COc1ccccc1N(C)C(=O)C1CN(c2c3c(nc4ccnn24)CCNCC3)C1 [Example 31.38],790 nM

row,Structure (SMILES),EC50
1,COc1ccc(OC2CN(c3c4c(nc5ccnn35)CCNCC4)C2)c(F)c1 [Example 35.34],65 nM
2,O=C(C1CN(c2c3c(nc4ccnn24)CCNCC3)C1)N1CCC(Oc2ccccc2Cl)CC1 [Example 31.145],94 nM
3,Cc1cc(OC2CN(c3c4c(nc5ccnn35)CCNCC4)C2)cc(C)n1 [Example 35.23],105 nM
4,c1ccc2c(c1)OCCN2c1c2c(nc3ccnn13)CCNCC2 [Example 1.39],2580 nM
5,"CC1CNCCc2c1nc1c(Br)cnn1c2N1CCC1 (stereo not shown) [Example 4, 10-Azetidin-1-yl-3-bromo-5-methyl-6,7,8,9-tetrahydro-5H-1,4,7,10a-tetraaza-cyclohepta[f]indene]",679 nM
6,Cc1cnn2c(N3CC(C(=O)N4CCC(Oc5ccccc5)CC4)C3)c3c(nc12)CCNCC3 [Example 31.244],62 nM
7,O=C(C1CN(c2c3c(nc4ccnn24)CCNCC3)C1)N1CCNCC1 [Example 37.44],2 nM
8,Cn1c(=O)ccc2c(OC3CN(c4c5c(nc6ccnn46)CCNCC5)C3)cccc21 [Example 35.1],41 nM
9,CCC(C)(C)NC(=O)C1CN(c2c3c(nc4ccnn24)CCNCC3)C1 [Example 37.54],118 nM
10,O=C(C1CN(c2c3c(nc4ccnn24)CCNCC3)C1)N1CCC(O)(c2cccc(C(F)(F)F)c2)CC1 [Example 31.226],74 nM
11,CN(C(=O)C1CCCN(c2c3c(nc4ccnn24)CCNCC3)C1)c1ccccc1 (stereo not shown) [Example 1.60],1590 nM
12,Fc1ccccc1OCC1CN(c2c3c(nc4ccnn24)CCNCC3)C1 [Example 15.2],3 nM
13,CC1(C)CC2CC(C)(CN2C(=O)C2CN(c3c4c(nc5ccnn35)CCNCC4)C2)C1 (stereo not shown) [Example 31.25],1510 nM
14,CC(C)C1CCN(C(=O)C2CN(c3c4c(nc5ccnn35)CCNCC4)C2)CC1 [Example 31.85],23 nM
15,"Fc1ccc(OCC2CN(c3c4c(nc5ccnn35)CCNCC4)C2)cc1 [Example 15, 10-[3-(4-Fluoro-phenoxymethyl)-azetidin-1-yl]-6,7,8,9-tetrahydro-5H-1,4,7,10a-tetraaza-cyclohepta[f]indene]",43 nM
16,COc1cc(Cl)ccc1OCC1CN(c2c3c(nc4ccnn24)CCNCC3)C1 [Example 15.26],163 nM
17,"COCC1CN(c2c3c(nc4ccnn24)CCNCC3)C1 [Example 16, 10-(3-Methoxymethyl-azetidin-1-yl)-6,7,8,9-tetrahydro-5H-1,4,7,10a-tetraaza-cyclohepta[f]indene]",211 nM
18,CCOC1CN(c2c3c(nc4ccnn24)CCNCC3)C1 [Example 20.2],658 nM
19,O=C(NC1CCC(F)(F)CC1)C1CN(c2c3c(nc4ccnn24)CCNCC3)C1 [Example 37.47],126 nM
20,"O=C(C1CN(c2c3c(nc4ccnn24)CCNCC3)C1)N1CCCC(F)(F)CC1 [Example 40, (4,4-Difluoro-perhydro-azepin-1-yl)-[1-(6,7,8,9-tetrahydro-5H-1,4,7,10a-tetraaza-cyclohept[f]inden-10-yl)-azetidin-3-yl]-methanone]",6 nM
21,FC(F)(F)c1ccnc(OC2CN(c3c4c(nc5ccnn35)CCNCC4)C2)c1 [Example 20.9],84 nM
22,COc1cccc(N(C)C(=O)C2CN(c3c4c(nc5ccnn35)CCNCC4)C2)c1 [Example 31.55],600 nM
23,O=C(C1CN(c2c3c(nc4ccnn24)CCNCC3)C1)N1CCC2(CC2)C1 [Example 31.14],87 nM
24,C[C@@H]1C[C@H](C)CN(C(=O)C2CN(c3c4c(nc5ccnn35)CCNCC4)C2)C1 [Example 31.180],36 nM
25,O=C(C1CN(c2c3c(nc4ccnn24)CCNCC3)C1)N1CCN(c2ccccc2F)CC1 [Example 37.40],12 nM

row,Structure (SMILES),EC50
1,COc1cc(Cl)ccc1OC1CN(c2c3c(nc4ccnn24)CCNCC3)C1 [Example 35.21],75 nM
2,c1cc2c3c(cccc3c1)CN(c1c3c(nc4ccnn14)CCNCC3)C2 [Example 1.50],924 nM
3,c1cc2c(c(OC3CN(c4c5c(nc6ccnn46)CCNCC5)C3)c1)CCCC2 [Example 35.25],666 nM
4,O=C(C1CN(c2c3c(nc4ccnn24)CCNCC3)C1)N1CCC(Oc2ccc(F)c(F)c2)CC1 [Example 31.146],91 nM
5,C[C@@H]1C[C@H](C)CN(C(=O)C2CN(c3c4c(nc5ccnn35)CCN(C)CC4)C2)C1 [Example 36.15],154 nM
6,CC1CCN(C(=O)C2CN(c3c4c(nc5ccnn35)CCNCC4)C2)CC1 [Example 31.228],42 nM
7,FC(F)(F)c1cccnc1OC1CN(c2c3c(nc4ccnn24)CCNCC3)C1 [Example 20.12],959 nM
8,O=C(NCCC1CCCC1)C1CN(c2c3c(nc4ccnn24)CCNCC3)C1 [Example 37.62],10 nM
9,O=C(NC1CCc2ccccc21)C1CN(c2c3c(nc4ccnn24)CCNCC3)C1 (stereo not shown) [Example 31.32],49 nM
10,"O=C(C1CN(c2c3c(nc4ccnn24)CCNCC3)C1)N1CCCCC(F)(F)C1 [Example 41, (3,3-Difluoro-perhydro-azepin-1-yl)-[1-(6,7,8,9-tetrahydro-5H-1,4,7,10a-tetraaza-cyclohept[f]inden-10-yl)-azetidin-3-yl]-methanone]",7 nM
11,CN(C)CCN(C)C(=O)C1CN(c2c3c(nc4ccnn24)CCN(C)CC3)C1 [Example 36.2],563 nM
12,COc1ccc(CN(C)C(=O)C2CN(c3c4c(nc5ccnn35)CCNCC4)C2)cc1 [Example 31.26],29 nM
13,CN1CCc2nc3ccnn3c(N3CC(C(=O)N4CCNCC4)C3)c2CC1 [Example 36.57],287 nM
14,CN1CCc2nc3ccnn3c(N3CC(C(=O)N4CCC(F)(F)CC4)C3)c2CC1 [Example 36.23],124 nM
15,O=C(NC1CCOC1)C1CN(c2c3c(nc4ccnn24)CCNCC3)C1 (stereo not shown) [Example 37.67],67 nM
16,O=C(C1CN(c2c3c(nc4ccnn24)CCNCC3)C1)N1CCC(Cc2ccc(Cl)cc2)C1 (stereo not shown) [Example 31.120],103 nM
17,"Cc1coc(C2CN(c3c4c(nc5ccnn35)CCNCC4)C2)n1 [Example 13, 10-[3-(4-Methyl-oxazol-2-yl)-azetidin-1-yl]-6,7,8,9-tetrahydro-5H-1,4,7,10a-tetraaza-cyclohepta[f]indene]",628 nM
18,C=C1CCN(C(=O)C2CN(c3c4c(nc5ccnn35)CCNCC4)C2)CC1 [Example 31.229],108 nM
19,COC1CN(c2c3c(nc4ccnn24)CCNCC3)C1 [Example 16.1],82 nM
20,O=C(C1CN(c2c3c(nc4ccnn24)CCNCC3)C1)N1CCCC(c2ccccc2)(c2ccccc2)C1 [Example 31.221],625 nM
21,COc1ccccc1OC1CN(c2c3c(nc4ccnn24)CCNCC3)C1 [Example 35.54],85 nM
22,CC(C)(O)[C@@H]1CCCN1C(=O)C1CN(c2c3c(nc4ccnn24)CCNCC3)C1 [Example 31.194],2560 nM
23,O=C(C1CN(c2c3c(nc4ccnn24)CCNCC3)C1)N1CCC2(CC1)OCc1ccccc12 [Example 31.153],86 nM
